The target of one test is T1, TAS2R30 (Homo sapiens, UniProt P59541).
T1 sequence (P59541 1-319): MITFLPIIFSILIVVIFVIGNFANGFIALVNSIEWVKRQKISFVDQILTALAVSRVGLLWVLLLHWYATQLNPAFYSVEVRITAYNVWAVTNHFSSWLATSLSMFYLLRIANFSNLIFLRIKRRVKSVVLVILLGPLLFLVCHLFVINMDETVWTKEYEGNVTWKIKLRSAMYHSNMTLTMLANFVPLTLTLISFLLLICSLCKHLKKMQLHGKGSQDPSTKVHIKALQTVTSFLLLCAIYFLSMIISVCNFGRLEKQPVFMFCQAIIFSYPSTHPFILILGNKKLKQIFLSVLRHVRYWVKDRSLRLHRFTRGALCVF
Briefly: cell-based. The note with it: 293AD cells. Also on record: bioluminescence intracellular calcium release assay, mt-clytin II with coelenterazine, Gα16-gust44 co-expressed. The protocol: (§1) The bioluminescence-based assay was used to characterize the functional properties of various human TAS2Rs. For each TAS2R, one or more of its cognate agonists were tested against either the AD-293 or 293AD cell line, or both. Both cell lines were used because of their stronger adherent properties, which facilitate media changes on the day of the FLIPR assay. However, because both cell lines are generated differently, some disparities in gene expression capacities due to a myriad of factors could be reasonably expected. Consequently, some TAS2Rs may be well expressed in one cell line but not the other, and the ability of each cell line to express a particular TAS2R needs to be empirically evaluated. […] However, deviations between our experimental and published potency values for some ligands (i.e. TAS2R4: stevioside; TAS2R7: Mg^2+, Mn^2+, Zn^2+) were observed, which could be attributed to the use of a different assay format, readout and processing parameters, use of different cell lines with resultant potential differences in TAS2R expression levels, and quality and methodological differences in ligand preparations. Because potency values could be obtained that were consistent with the literature, or close to the reported minimal effective stimulatory concentration upon further testing of other TAS2R4/7 agonists, the deviation in EC50 values could be largely attributed to qualitative differences in the ligands (Supplementary Fig. S3). Calcium responses induced by the tested cognate agonists reflected specific TAS2R stimulation. […] Poor localization of TAS2Rs to the cell surface in heterologous systems was associated with diminished receptor signaling output and functionality. One of the more commonly used strategies to enhance the density of TAS2Rs at the cell surface involves fusing an N-terminal signal sequence of either the SST3, or Rho receptor to the TAS2R[24]. We adopted this approach, specifically co-expressing SST3-TAS2R with Gα16-gust44 chimera and mt-clytin II, to develop and validate a bioluminescence-based TAS2R intracellular calcium release assay. A strength of the bioluminescence-based TAS2R assay is its capacity to generate greater assay spans than that of fluorescence-based assays, which could be largely attributed to the utilization of mt-clytin II as the calcium reporter. Calcium-binding photoproteins in general are useful reporters for studying calcium-mediated signaling processes. […] Its fast calcium binding and dissociation kinetics render it a suitable indicator to report on swift, transient changes in calcium ion concentrations and study rapid receptor-ligand interactions. Mitochondrial targeting of clytin II was crucial to generating higher luminescence intensity than that of cytosol-localized clytin II, as inositol 1,4,5-triphosphate (IP3)-induced calcium release from the ER subsequent to ligand activation is thought to result in the formation of ER-proximal, calcium-rich microdomains that enabled the closely apposed mitochondria to sense a higher initial rise in calcium concentration than would be experienced by the bulk cytosol.

The target in a further test is T2, TAS2R16 (Homo sapiens, UniProt Q9NYV7).
T2 sequence (Q9NYV7 1-291): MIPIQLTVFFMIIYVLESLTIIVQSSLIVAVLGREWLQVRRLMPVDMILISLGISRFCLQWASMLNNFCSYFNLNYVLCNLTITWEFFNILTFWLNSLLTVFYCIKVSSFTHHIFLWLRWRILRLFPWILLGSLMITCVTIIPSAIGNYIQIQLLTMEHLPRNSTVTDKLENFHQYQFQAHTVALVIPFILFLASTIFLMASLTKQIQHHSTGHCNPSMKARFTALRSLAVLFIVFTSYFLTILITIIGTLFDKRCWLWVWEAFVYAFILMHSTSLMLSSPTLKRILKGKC
Briefly: cell-based. The arrangement: bioluminescence intracellular calcium release assay, mt-clytin II with coelenterazine, Gα16-gust44 co-expressed. The protocol:
as §1

Another test deals with T3, TAS2R10 (Homo sapiens, UniProt Q9NYW0).
T3 sequence (Q9NYW0 1-307): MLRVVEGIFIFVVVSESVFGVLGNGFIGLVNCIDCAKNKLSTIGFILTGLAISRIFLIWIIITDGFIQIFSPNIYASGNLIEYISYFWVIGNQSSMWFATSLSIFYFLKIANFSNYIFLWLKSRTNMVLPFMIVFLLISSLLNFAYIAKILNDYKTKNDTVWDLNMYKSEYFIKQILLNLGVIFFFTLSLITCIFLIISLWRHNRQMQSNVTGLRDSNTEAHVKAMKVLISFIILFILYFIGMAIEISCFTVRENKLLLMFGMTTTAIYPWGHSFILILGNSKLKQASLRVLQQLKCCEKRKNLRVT
As to the kind of experiment: cell-based. Also on record: bioluminescence intracellular calcium release assay, mt-clytin II with coelenterazine, Gα16-gust44 co-expressed. The protocol:
as §1

Another test deals with T4, TAS2R8 (Homo sapiens, UniProt Q9NYW2).
T4 sequence (Q9NYW2 1-309): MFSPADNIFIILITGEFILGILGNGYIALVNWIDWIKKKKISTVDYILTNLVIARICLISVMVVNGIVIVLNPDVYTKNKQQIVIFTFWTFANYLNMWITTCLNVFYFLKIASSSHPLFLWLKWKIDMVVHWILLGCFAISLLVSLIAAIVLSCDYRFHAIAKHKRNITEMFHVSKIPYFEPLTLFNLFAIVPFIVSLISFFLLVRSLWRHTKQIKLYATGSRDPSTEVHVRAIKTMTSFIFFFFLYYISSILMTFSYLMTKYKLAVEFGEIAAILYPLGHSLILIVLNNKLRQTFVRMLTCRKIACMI
Briefly: cell-based. Also on record: bioluminescence intracellular calcium release assay, mt-clytin II with coelenterazine, Gα16-gust44 co-expressed. The protocol:
as §1

A further test deals with T5, TAS2R20 (Homo sapiens, UniProt P59543).
T5 sequence (P59543 1-309): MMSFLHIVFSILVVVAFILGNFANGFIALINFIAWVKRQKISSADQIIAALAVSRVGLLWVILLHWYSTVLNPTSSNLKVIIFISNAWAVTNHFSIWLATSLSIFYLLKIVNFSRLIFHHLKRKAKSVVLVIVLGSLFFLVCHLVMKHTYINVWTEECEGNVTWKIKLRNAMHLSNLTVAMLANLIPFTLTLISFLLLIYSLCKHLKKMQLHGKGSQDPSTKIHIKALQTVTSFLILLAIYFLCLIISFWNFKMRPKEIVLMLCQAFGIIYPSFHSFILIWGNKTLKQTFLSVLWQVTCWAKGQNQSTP
Briefly: cell-based. The arrangement: bioluminescence intracellular calcium release assay, mt-clytin II with coelenterazine, Gα16-gust44 co-expressed. The protocol:
as §1

In a further test the target is T6, TAS2R13 (Homo sapiens, UniProt Q9NYV9).
T6 sequence (Q9NYV9 1-303): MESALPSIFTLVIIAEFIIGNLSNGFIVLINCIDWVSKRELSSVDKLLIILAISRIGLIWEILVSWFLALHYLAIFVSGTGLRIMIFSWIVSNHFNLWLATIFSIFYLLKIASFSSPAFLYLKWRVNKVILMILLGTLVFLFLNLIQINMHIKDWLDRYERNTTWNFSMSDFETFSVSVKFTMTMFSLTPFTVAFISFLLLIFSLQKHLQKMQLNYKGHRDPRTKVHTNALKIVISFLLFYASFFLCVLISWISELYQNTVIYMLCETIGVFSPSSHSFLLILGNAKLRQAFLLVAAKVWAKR
As to the kind of experiment: cell-based. As to conditions: 293AD cells. Also on record: bioluminescence intracellular calcium release assay, mt-clytin II with coelenterazine, Gα16-gust44 co-expressed. The protocol: as §1

Another test has as its target T7, TAS2R14 (Homo sapiens, UniProt Q9NYV8).
T7 sequence (Q9NYV8 1-317): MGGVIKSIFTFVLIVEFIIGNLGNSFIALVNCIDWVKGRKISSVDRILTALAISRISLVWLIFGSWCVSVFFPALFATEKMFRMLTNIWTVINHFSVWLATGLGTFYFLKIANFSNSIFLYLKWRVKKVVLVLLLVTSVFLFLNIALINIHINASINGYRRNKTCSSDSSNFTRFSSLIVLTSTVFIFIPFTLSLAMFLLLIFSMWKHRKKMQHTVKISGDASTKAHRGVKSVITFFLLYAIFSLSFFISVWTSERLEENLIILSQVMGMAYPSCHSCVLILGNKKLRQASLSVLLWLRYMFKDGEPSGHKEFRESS
As to the kind of experiment: cell-based. Also on record: species or system 293AD; bioluminescence intracellular calcium release assay, mt-clytin II with coelenterazine, Gα16-gust44 co-expressed.

The target of the next test is T8, TAS2R9 (Homo sapiens, UniProt Q9NYW1).
T8 sequence (Q9NYW1 1-312): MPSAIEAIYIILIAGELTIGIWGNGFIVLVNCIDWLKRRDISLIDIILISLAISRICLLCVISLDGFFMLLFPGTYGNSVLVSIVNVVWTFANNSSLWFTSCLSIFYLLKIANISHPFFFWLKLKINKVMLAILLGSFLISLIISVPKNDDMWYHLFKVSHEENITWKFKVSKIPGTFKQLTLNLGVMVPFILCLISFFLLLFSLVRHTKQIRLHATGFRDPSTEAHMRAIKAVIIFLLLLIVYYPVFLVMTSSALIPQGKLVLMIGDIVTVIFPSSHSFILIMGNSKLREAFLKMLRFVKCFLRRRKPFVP
Briefly: cell-based. The arrangement: bioluminescence intracellular calcium release assay, mt-clytin II with coelenterazine, Gα16-gust44 co-expressed. The note with it: 293AD cells. The protocol:
as §1

The target of a further test is T9, TAS2R43 (Homo sapiens, UniProt P59537).
T9 construct: AD-293 cells; co-expressed Galpha16-gust44 chimera and mt-clytin II reporter (type 2 multigene vector)
T9 sequence (P59537 2-309): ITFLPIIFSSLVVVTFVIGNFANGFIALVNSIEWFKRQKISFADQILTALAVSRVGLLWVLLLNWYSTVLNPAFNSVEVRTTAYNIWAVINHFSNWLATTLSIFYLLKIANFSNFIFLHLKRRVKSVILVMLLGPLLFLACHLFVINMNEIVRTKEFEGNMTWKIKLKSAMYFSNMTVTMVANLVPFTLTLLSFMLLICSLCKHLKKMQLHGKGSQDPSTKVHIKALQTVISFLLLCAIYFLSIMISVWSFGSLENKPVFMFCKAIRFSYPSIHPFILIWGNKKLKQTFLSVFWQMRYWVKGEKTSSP
Briefly: bioluminescence (mt-clytin II) intracellular calcium release. It is filed as cell-based. The source says: bioluminescence (mt-clytin II) intracellular calcium release on TAS2R43 | TAS2R43, both aristolochic acid and aloin could be considered full agonists | indicating the partial agonist activity of caffeine towards TAS2R43

Usually EC50 stands for the concentration at which the effect is half-maximal.

Description for TAS2R14: The bioluminescence-based assay was used to characterize the functional properties of various human TAS2Rs. For each TAS2R, one or more of its cognate agonists were tested against either the AD-293 or 293AD cell line, or both. […] We adopted this approach, specifically co-expressing SST3-TAS2R with Gα16-gust44 chimera and mt-clytin II, to develop and validate a bioluminescence-based TAS2R intracellular calcium release assay.

`C=C[C@H]1[C@H](O[C@@H]2O[C@H](CO)[C@@H](O)[C@H](O)[C@H]2OC(=O)c2c(O)cc(O)cc2-c2cccc(O)c2)OC=C2C(=O)OCC[C@H]21` [Amarogentin]: the EC50 on TAS2R30 came out at 3 ± 1 µM.

Turning to `OC[C@H]1O[C@@H](Oc2ccc(O)cc2)[C@H](O)[C@@H](O)[C@@H]1O` [Arbutin], on TAS2R16 (AD-293 cells), the EC50 was determined as 5000 ± 1200 µM.

For the compound `COc1cc2c(cc1OC)[C@@]13CCN4CC5=CCO[C@H]6CC(=O)N2[C@H]1[C@H]6[C@H]5C[C@H]43` [Brucine], the EC50 on TAS2R10 (293AD cells) amounted to 21 ± 6.5 µM; on TAS2R10 (AD-293 cells), 42 ± 3 µM.

Consider `O=C(N[C@H](CO)[C@H](O)c1ccc([N+](=O)[O-])cc1)C(Cl)Cl` [Chloramphenicol], for which the EC50 on TAS2R8 (293AD cells) stood at 18 ± 2.7 µM; on TAS2R8 (AD-293 cells), 70 ± 12 µM.

On to `O=C(O)c1cc(=O)c2c(OCC(O)COc3cccc4oc(C(=O)O)cc(=O)c34)cccc2o1` [Cromolyn], for which the half-maximal effective concentration (EC50) was 35 ± 7 µM on TAS2R20 (293AD cells) and 73 ± 26 µM at TAS2R20 (AD-293 cells).

As for `CC[N+](CC)(CC(=O)Nc1c(C)cccc1C)Cc1ccccc1` [Denatonium benzoate], the EC50 on TAS2R8 (AD-293 cells) came to 1000 ± 100 µM.

`O=Cc1ccccc1O[C@@H]1O[C@H](CO)[C@@H](O)[C@H](O)[C@H]1O` [Helicin]: at TAS2R16 (AD-293 cells), the concentration for a half-maximal effect (EC50) came out at 3000 ± 200 µM.

For `CC[N+](C)(CC)CCOC(=O)C(O)(c1ccccc1)C1CCCCC1` (stereo not drawn) [Oxyphenonium], the EC50 at TAS2R13 came to 161 ± 16 µM.

`C=C(C)[C@@H]1[C@H]2OC(=O)[C@@H]1[C@]1(O)C[C@H]3O[C@]34C(=O)O[C@H]2[C@]14C` [Picrotoxinin]: the EC50 at TAS2R14 was determined as 54 ± 8.4 µM.

With `CN1CCN(CC(=O)N2c3ccccc3C(=O)Nc3cccnc32)CC1` [Pirenzepine], the concentration giving a half-maximal response (EC50) at TAS2R9 came to 4000 ± 400 µM.

On to `OCc1ccccc1O[C@@H]1O[C@H](CO)[C@@H](O)[C@H](O)[C@H]1O` [Salicin], for which the concentration giving a half-maximal response (EC50) came to 400 ± 200 µM on TAS2R16 (293AD cells) and 2000 ± 600 µM on TAS2R16 (AD-293 cells).

Consider `O=C1c2c(O)cccc2C([C@@H]2O[C@H](CO)[C@@H](O)[C@H](O)[C@H]2O)c2cc(CO)cc(O)c21` (stereo partly drawn) [aloin], for which the EC50 at TAS2R43 worked out at 5 ± 3 µM.

As to `COc1cccc2c1cc([N+](=O)[O-])c1c(C(=O)O)cc3c(c12)OCO3` [aristolochic acid], at TAS2R43, the EC50 turned out to be 0.026 ± 0.003 µM.

As for `Cn1c(=O)c2c(ncn2C)n(C)c1=O` [caffeine], on TAS2R43, the EC50 was determined as 390 ± 120 µM.

(Values after article PMC9587021, “Construction of a bioluminescence-based assay for bitter taste receptors (TAS2Rs)” (Scientific Reports, 2022).)
